# According to PubChem BioAssay AID1996:
# Settings: buffer; pH 7.4; 200.0 µM
row,SMILES,solubility kinetic [µg/mL]
1,Nc1c(C(=O)OCC(=O)Nc2cccc([N+](=O)[O-])c2)[nH]c(=O)[nH]c1=O,51.5
2,CN1CCN(c2ncnc3nc[nH]c23)CC1,28.8
3,Fc1cc2[nH]cnc2cc1Cl,> 25.6
4,O=C(Cn1cnc2ccccc21)c1ccc(Cl)cc1,28.9
5,O=C(NN1CCOCC1)c1ccccc1,> 30.9
6,COc1ccc(Cl)cc1NS(=O)(=O)N1CCOCC1,> 46
7,Cc1ccc(C(=O)N2CCN(CCNC(=O)C(=O)Nc3ccc(Cl)cc3)CC2)cc1,2.6
8,Cc1csc(NC(=O)c2ccc3c(c2)OCO3)n1,31.4
9,COc1ccccc1/C(C)=N/Oc1cc(N)cc([N+](=O)[O-])c1,1.7
10,N#Cc1ccccc1NC(=O)CN1CC=C(c2ccccc2)CC1,15.7
11,O=C(Nc1cc(Cl)ccc1Cl)c1cc(-c2ccco2)on1,0.7
12,Cc1cccc(-n2c(C)nc3ccccc3c2=O)c1C,> 39.6
13,C=C(Br)Cn1cnc2ccccc21,> 35.6
14,CN(C(=O)COC(=O)c1ccc(S(=O)(=O)N2CCOCC2)cc1)c1ccccc1,15.8
15,CN(CC(=O)Nc1ccc2c(c1)OCO2)CC(=O)Nc1ccc(F)c(F)c1F,> 59.3
16,COc1cc(C(=O)NCC2CCCCC2)cc(OC)c1OC,12.8
17,CN1CCc2c(sc3c2C(=O)NC(/C=C\c2ccccc2)N3)C1 (centres undefined),44.6
18,COc1ccccc1NC(=O)/C(=C/c1cccs1)NC(=O)c1ccco1,> 55.3
19,Cc1nc2ccccn2c(=O)c1NC(=O)c1cccs1,> 42.8
20,COc1ccc(NS(=O)(=O)c2cccc(C(=O)O)c2)cc1S(=O)(=O)N1CCCCC1,> 68.2

row,SMILES,solubility kinetic [µg/mL]
1,Cc1cccn2c(=O)c3cc(C(=O)N4CCCCC4C)sc3nc12 (centres undefined),13.1
2,O=C(NCc1cccnc1)c1nn2cccnc2c1Cl,> 43.2
3,CN(c1ccccc1)c1nccc(=O)[nH]1,> 30.2
4,Cc1nc2ccc(NC(=O)C3CCCCC3)cc2s1,13.2
5,CC(C)(C)OC(=O)N1CCCN(C(=O)Nc2ccc(C(F)(F)F)cc2)CC1,53.8
6,Cn1c(C2CCCCC2)nc2cc(N)ccc21,> 34.4
7,CC(C)(O)C#Cc1ccc(C(=O)NC2CCCCC2)s1,> 43.7
8,COc1ccc(NC(=O)C(=O)Nc2cccc3ccccc23)c(OC)c1,< 0.4
9,O=C(NCCN1CCOCC1)C1CC(=O)N(c2ccc(Cl)cc2)C1 (centres undefined),> 52.8
10,CC(C)(C)C(=O)Nc1ccc(-c2cn3cccnc3n2)cc1,42.6
11,COc1ccc(Cl)cc1NC(=O)CN1CCCCCC1,2.1
12,NC(=O)NC(=O)COC(=O)c1cccnc1Nc1ccccc1F,4.6
13,Cn1c(N)c(C(=O)COC(=O)Cc2ccc(Cl)c(Cl)c2)c(=O)n(C)c1=O,25.7
14,CC(OC(=O)c1cc[n+]([O-])cc1)C(=O)NCc1ccccc1 (centres undefined),> 45
15,COC(=O)c1[nH]c2ccccc2c1NC(=O)c1c(F)cccc1F,1.1
16,Cc1nn(C)c(=O)n1-c1ccccc1,> 28.4
17,COc1ccc(C(=O)NCCc2ccccc2)cc1[N+](=O)[O-],> 45
18,COc1cc2c(cc1OC)CN(c1ccc(C(N)=O)cc1[N+](=O)[O-])CC2,6.4
19,C=CCn1c(SCC(=O)NCC)nc2sc3c(c2c1=O)CCC3,37.5
20,O=S(=O)(c1ccccc1)N1CCCC1c1cccs1 (centres undefined),> 44

row,SMILES,solubility kinetic [µg/mL]
1,CCCCN(C(=O)CN(C)CC(=O)Nc1cccc(OC)c1)c1c(N)n(CCCC)c(=O)[nH]c1=O,> 73.3
2,Cc1cc(C(=O)Nc2ccccc2C(=O)O)oc1C,31.3
3,O=C(Cc1c(F)cccc1Cl)NCCc1c[nH]c2ccccc12,4.8
4,Oc1ccccc1-c1nc2ccccc2nc1-c1ccccc1,25.1
5,CN1CCN(C(=O)C2CC(=O)N(c3ccc(Cl)cc3)C2)CC1 (centres undefined),42.7
6,N#C/C(=C/Nc1ccccc1F)S(=O)(=O)c1ccc(Cl)cc1,2.1
7,O=C(/C=C/c1cccs1)NC1CCCC1,> 33.2
8,CC1CN(C(=O)c2cccc(Oc3ccccc3)c2)CC(C)O1 (centres undefined),> 46.7
9,O=[N+]([O-])c1ccc2ccn(C3OCC(O)C(O)C3O)c2c1 (centres undefined),> 44.1
10,O=C(CCc1nc(-c2ccccc2Cl)no1)NCC1CCCO1 (centres undefined),47.7
11,O=C(NCC(O)c1ccc([N+](=O)[O-])cc1)C1=COCCO1 (centres undefined),> 44.1
12,O=S(=O)(c1ccc(Cl)cc1Cl)N1CCCC1c1cccnc1 (centres undefined),> 53.6
13,Cc1ccc(-n2c(O)c(C=NCc3ccco3)c(=O)[nH]c2=S)cc1C,11.1
14,O=[N+]([O-])c1cccc(S(=O)(=O)NCCCn2ccnc2)c1,> 46.5
15,CCCCNC(=O)C1CCN(S(=O)(=O)N2CCOCC2)CC1,> 50
16,Cc1ccc(CN2CCN(c3cccc4[nH]ccc34)CC2)cc1,41.2
17,Cc1cc2ccccn2c1C(=O)c1ccc(C#N)cc1,1.9
18,COc1ccccc1C(C)NC(=O)CCNC(=O)c1ccc(Cl)cc1 (centres undefined),4.5
19,COc1ccc(S(=O)(=O)N2CCC(N3CCCC3)CC2)cc1,46.7
